From publication PMC7004565, “Nucleotide inhibition of the pancreatic ATP-sensitive K^+ channel explored with patch-clamp fluorometry” (eLife, 2020)

Columns and labels:
[1] = target: T1, Kir6.2*,G334D-GFP + SUR1 (Homo sapiens, UniProt Q14654, G334D); assay: FRET (ANAP quenching) nucleotide binding in unroofed membranes; conditions: Hill fit
T1 construct: ANAP labelling is specific and only full-length Kir6.2 is expressed at the cell membrane; expressed in transfected cells; host or cells: HEK-293T
T1 sequence (Q14654 whole entry G334D): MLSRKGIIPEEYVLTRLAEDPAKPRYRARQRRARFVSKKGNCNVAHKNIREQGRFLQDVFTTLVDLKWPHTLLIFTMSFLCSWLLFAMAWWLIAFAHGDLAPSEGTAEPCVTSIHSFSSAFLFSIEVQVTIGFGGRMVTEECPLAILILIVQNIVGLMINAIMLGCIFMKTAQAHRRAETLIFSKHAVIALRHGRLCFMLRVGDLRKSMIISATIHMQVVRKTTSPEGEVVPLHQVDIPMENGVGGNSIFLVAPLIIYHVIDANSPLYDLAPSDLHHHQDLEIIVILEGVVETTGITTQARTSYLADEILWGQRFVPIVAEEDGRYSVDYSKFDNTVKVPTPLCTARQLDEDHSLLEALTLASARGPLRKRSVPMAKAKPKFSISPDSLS
T1 sequence (Q09428 whole entry partner): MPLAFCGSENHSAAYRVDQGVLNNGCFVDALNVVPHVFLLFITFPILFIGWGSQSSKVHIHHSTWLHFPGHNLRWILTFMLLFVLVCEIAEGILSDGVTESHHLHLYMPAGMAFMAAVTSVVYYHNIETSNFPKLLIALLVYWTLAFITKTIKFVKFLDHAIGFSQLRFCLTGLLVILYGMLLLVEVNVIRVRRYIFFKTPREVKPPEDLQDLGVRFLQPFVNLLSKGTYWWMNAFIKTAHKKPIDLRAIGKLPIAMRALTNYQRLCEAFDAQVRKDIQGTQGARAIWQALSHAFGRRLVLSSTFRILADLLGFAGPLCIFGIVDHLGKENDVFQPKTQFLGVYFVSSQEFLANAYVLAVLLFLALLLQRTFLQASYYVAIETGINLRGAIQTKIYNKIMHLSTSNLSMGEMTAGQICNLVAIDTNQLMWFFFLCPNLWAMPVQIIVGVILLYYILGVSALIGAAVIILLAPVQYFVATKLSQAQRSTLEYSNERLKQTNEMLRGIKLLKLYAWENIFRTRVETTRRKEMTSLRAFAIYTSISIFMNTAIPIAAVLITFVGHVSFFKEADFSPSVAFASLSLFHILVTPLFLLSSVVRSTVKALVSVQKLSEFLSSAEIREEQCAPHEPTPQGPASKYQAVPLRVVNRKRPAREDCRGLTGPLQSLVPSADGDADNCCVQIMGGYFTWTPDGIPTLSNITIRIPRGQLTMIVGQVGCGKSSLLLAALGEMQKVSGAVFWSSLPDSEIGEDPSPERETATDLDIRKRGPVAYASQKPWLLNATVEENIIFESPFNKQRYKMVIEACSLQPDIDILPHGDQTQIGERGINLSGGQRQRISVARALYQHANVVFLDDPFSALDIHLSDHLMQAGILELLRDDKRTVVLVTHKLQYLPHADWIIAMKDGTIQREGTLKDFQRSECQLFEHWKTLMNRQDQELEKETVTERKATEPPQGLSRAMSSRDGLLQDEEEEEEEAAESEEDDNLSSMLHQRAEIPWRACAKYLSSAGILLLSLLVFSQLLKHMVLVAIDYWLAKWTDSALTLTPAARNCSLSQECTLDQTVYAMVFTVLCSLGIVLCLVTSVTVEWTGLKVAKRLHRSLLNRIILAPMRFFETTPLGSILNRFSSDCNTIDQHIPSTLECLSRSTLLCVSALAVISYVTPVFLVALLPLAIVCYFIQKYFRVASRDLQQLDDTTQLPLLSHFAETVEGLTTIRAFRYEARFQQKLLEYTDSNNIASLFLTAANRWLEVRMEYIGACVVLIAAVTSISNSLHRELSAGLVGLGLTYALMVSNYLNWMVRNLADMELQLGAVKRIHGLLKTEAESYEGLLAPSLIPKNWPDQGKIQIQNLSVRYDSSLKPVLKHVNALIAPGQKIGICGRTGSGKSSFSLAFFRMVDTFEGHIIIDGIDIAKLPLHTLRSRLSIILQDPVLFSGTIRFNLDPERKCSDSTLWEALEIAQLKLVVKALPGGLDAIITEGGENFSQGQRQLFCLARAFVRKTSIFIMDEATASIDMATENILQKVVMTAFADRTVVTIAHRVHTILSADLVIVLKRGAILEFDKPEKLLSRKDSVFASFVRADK
Source text: To measure nucleotide binding, cells transfected with Kir6.2*-GFP + SUR1 were briefly sonicated, leaving behind unroofed plasma membrane fragments ([Heuser, 2000]; [Zagotta et al., 2016]; [Puljung et al., 2019]) containing ANAP-labelled KATP channels with the intracellular nucleotide-binding sites exposed to the bath solution. The sample was excited with a 385 nm LED and emitted fluorescence from the membrane fragments was passed through a spectrometer, allowing us to separate ANAP, GFP, and TNP-ATP fluorescence by peak wavelength (Figure 1E,F). As expected from FRET, increasing the concentration of TNP-ATP caused a decrement in the ANAP peak at 472 nm and a concomitant increase in the TNP-ATP peak at 561 nm (Figure 1F). We used the quenching of the ANAP peak as a direct measure of TNP-ATP binding as this signal was specific to KATP. In contrast, the peak TNP-ATP fluorescence may include contributions from both specific and non-specific nucleotide binding, as well as direct excitation of TNP-ATP in solution by the 385 nm excitation light. Due to the sharp cut-off of the GFP emission spectrum at shorter wavelengths, our measurements of peak ANAP fluorescence were unaffected by the presence of the GFP tag on Kir6.2. […]
Epifluorescence imaging and spectroscopy were performed using a Nikon Eclipse TE2000-U microscope with a 60x water immersion objective (Plan Apo VC, NA = 1.2, Nikon; Kingston upon Thames, UK) or a 100x oil immersion objective (Nikon, Apo TIRF, NA = 1.49). […] Fluorescence spectra were collected by exciting ANAP as above but using a 400 nm long-pass emission filter (ThorLabs), then passing emitted light through an IsoPlane 160 Spectrometer (Princeton Instruments; Trenton, NJ) with a 300 grooves mm^-1 grating. […]
Unroofed membranes were prepared as described previously ([Heuser, 2000]; [Zagotta et al., 2016]; [Puljung et al., 2019]). […] Unroofed membrane fragments were nearly invisible in bright-field images and identified by their GFP and ANAP fluorescence. […]

[2] = target: Kir6.2*,C166S-GFP + SUR1 (Homo sapiens, UniProt Q14654, C166S); assay: ANAP fluorescence quenching in excised patches (patch-clamp fluorometry); assay type: binding; parameters: ANAP labelling is specific and only full-length Kir6.2 is expressed at the cell membrane; expressed in transfected cells; host or cells: HEK-293T; conditions: excised patches (PCF), Hill fit
Sequence of Kir6.2*,C166S-GFP + SUR1 (Q14654 whole entry C166S): as the sequence (Q14654 whole entry G334D) above, with C166S, D334G counted along it
Sequence of Kir6.2*,C166S-GFP + SUR1 (Q09428 whole entry partner): as the sequence (Q09428 whole entry partner) above
Description: (§1) Currents were measured as described above.
(§2) ANAP bleaching was corrected as for the unroofed binding experiments with Equation 1 (Figure 2—figure supplement 3A). Due to the lower signal-to-noise ratio for PCF compared to the unroofed membranes, we performed experiments from both high-to-low and low-to-high TNP-ATP concentrations to minimise artifacts from our bleaching corrections.

[3] = target: T2, Kir6.2*-GFP + SUR-K205A (Homo sapiens, UniProt Q14654); assay: as above; assay type: binding; conditions: excised patches (PCF), Hill fit
T2 construct: ANAP labelling is specific and only full-length Kir6.2 is expressed at the cell membrane; expressed in transfected cells; host or cells: HEK-293T
T2 sequence (Q14654 whole entry, stated change not applied): as the sequence (Q14654 whole entry G334D) above, with D334G counted along it
T2 sequence (Q09428 whole entry K205A partner): as the sequence (Q09428 whole entry partner) above, with K205A counted along it
Source text: (§3) We introduced a charge neutralization (alanine, K205A) and a charge reversal (glutamate, K205E) mutation at this position and measured simultaneous nucleotide binding and current inhibition with PCF (Figure 4B,C,D). The binding and inhibition curves for TNP-ATP almost perfectly overlaid for the SUR1-K205A mutant (Figure 4C). The same was also true for SUR1-K205E (Figure 4D). Data were fit with the MWC-type model as before. […] This was reflected by a decrease in the estimated KA for TNP-ATP, which correlated with the degree of conservation of the mutation, that is we observed a larger effect for the charge reversal compared to the charge neutralization mutation (Figure 4E). However, in addition to direct effects of K205 on nucleotide binding, we also observed a shift in D for both mutations (Figure 4E).
as §1, §2

[4] = target: T3, Kir6.2*-GFP + SUR-K205E (Homo sapiens, UniProt Q14654); assay: as above; assay type: binding; conditions: excised patches (PCF), Hill fit
T3 construct: ANAP labelling is specific and only full-length Kir6.2 is expressed at the cell membrane; expressed in transfected cells; host or cells: HEK-293T
T3 sequence (Q14654 whole entry, stated change not applied): as the sequence (Q14654 whole entry G334D) above, with D334G counted along it
T3 sequence (Q09428 whole entry K205E partner): as the sequence (Q09428 whole entry partner) above, with K205E counted along it
Source text: as §3, §1, §2

Nc1ncnc2c1ncn2[C@@H]1O[C@H](COP(=O)(O)OP(=O)(O)OP(=O)(O)O)[C@H]2OC3(O[C@H]21)C([N+](=O)[O-])=CC(=[N+]([O-])[O-])C=C3[N+](=O)[O-] (stereo partly drawn) [TNP-ATP, trinitrophenyl-ATP]
h (Hill coefficient) fluorescence quenching [1]: 2.63
Emax ([1]; fraction, read-out: Emax fluorescence quenching): 8%
EC50 ([1]; n = 9, read-out: EC50 fluorescence quenching): 493 µM
h (Hill coefficient) fluorescence quenching [2]: 0.84
Emax ([2]; fraction): 100%
EC50 ([2]; n = 6): 67.6 µM
h (Hill coefficient) fluorescence quenching [3]: 0.73
Emax ([3]; fraction): 100%
EC50 ([3]; n = 9): 204 µM
h (Hill coefficient) fluorescence quenching [4]: 0.74
Emax ([4]; fraction): 100%
EC50 ([4]; n = 9): 427 µM
